Target: T1, recombinant human GR (Homo sapiens, UniProt P04150)
T1 construct: purchased Panvera/Invitrogen P2812 (kit P2893)
T1 sequence (P04150 1-777): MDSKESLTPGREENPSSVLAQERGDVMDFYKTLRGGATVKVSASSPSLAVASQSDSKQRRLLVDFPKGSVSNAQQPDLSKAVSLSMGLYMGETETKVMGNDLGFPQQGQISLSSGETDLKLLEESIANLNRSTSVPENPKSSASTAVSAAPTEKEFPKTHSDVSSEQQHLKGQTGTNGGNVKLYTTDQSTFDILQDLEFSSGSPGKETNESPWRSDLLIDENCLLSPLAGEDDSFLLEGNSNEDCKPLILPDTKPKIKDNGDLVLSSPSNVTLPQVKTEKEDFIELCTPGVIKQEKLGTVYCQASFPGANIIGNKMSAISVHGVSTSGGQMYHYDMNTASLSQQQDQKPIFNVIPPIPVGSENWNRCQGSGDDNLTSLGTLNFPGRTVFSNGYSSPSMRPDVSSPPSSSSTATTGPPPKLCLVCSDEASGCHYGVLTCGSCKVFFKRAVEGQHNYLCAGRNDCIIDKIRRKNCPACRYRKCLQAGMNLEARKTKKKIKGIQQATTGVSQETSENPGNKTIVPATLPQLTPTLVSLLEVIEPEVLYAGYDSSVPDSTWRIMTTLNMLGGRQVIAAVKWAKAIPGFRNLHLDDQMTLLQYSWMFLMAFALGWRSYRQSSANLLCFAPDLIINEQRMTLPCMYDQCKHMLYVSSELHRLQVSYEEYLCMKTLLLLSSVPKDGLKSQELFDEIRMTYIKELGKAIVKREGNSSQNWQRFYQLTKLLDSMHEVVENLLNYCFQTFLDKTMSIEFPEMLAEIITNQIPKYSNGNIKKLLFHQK
Assay: Human Glucocorticoid Receptor (GR) Assay (fluorescence polarization, Panvera/Invitrogen kit)
Type: binding
Conditions: fluorescence polarization; GS Red tracer; 2 hours at room temperature; 100% control 10 μM Dexamethasone; read-out: Inhibition of GR binding, IC50
Procedure, shortened: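 Fluorescence polarization competition with recombinant GR and GS Red fluorescent ligand plus stabilizing peptide and DTT in potassium phosphate/sodium molybdate/EDTA buffer with DMSO. Incubated 2 hours at room temperature in the dark; 0% control DMSO, 100% control 10 μM dexamethasone.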

Structure (SMILES)	IC50 [nM]
C[C@]12Cc3cnn(-c4ccc(F)c(CO)c4)c3C=C1CC[C@@H]1[C@@H]2[C@@H](O)C[C@@]2(C)[C@H]1CC[C@]2(OC(=O)C1CC1)C(=O)OCC#N [Example 145, Cyanomethyl(1R,3aS,3bS,10aR,10bS,11S,12aS)-1-[(cyclopropylcarbonyl)oxy]-7-[4-fluoro-3-(hydroxymethyl)phenyl]-11-hydroxy-10a,12a-dimethyl-1,2,3,3a,3b,4,5,7,10,10a,10b,11,12,12a-tetradecahydrocyclopenta[5,6]naphtho[1,2-f]indazole-1-carboxylate]	3.2
C[C@]12Cc3cnn(-c4ccc(F)cc4)c3C=C1CC[C@@H]1[C@@H]2[C@@H](O)C[C@@]2(C)[C@H]1CC[C@]2(OC(=O)C1(C#N)CC1)C(=O)SCC#N [Example 146, (1R,3aS,3bS,10aR,10bS,11S,12aS)-1-{[(Cyanomethyl)sulfanyl]carbonyl}-7-(4-fluorophenyl)-11-hydroxy-10a,12a-dimethyl-1,2,3,3a,3b,4,5,7,10,10a,10b,11,12,12a-tetradecahydrocyclopenta[5,6]naphtho[1,2-f]indazol-1-yl 1-cyanocyclopropane Carboxylate]	3.4
C[C@]12Cc3cnn(-c4ccccn4)c3C=C1CC[C@@H]1[C@@H]2[C@@H](O)C[C@@]2(C)[C@H]1CC[C@]2(OC(=O)C1CC1)C(=O)SCF [Example 149, (1R,3aS,3bS,10aR,10bS,11S,12aS)-1-{[(Fluoromethyl)sulfanyl]carbonyl}-11-hydroxy-10a,12a-dimethyl-7-pyridin-2-yl-1,2,3,3a,3b,4,5,7,10,10a,10b,11,12,12a-tetradecahydrocyclopenta[5,6]naphtho[1,2-f]indazol-1-yl cyclopropane Carboxylate]	5
C[C@]12Cc3cnn(-c4ccc(Cl)cn4)c3C=C1CC[C@@H]1[C@@H]2[C@@H](O)C[C@@]2(C)[C@H]1CC[C@]2(OC(=O)C1CC1)C(=O)SCF [Example 150, (1R,3aS,3bS,10aR,10bS,11S,12aS)-7-(5-Chloropyridin-2-yl)-1-{[(fluoromethyl)sulfanyl]carbonyl}-11-hydroxy-10a,12a-dimethyl-1,2,3,3a,3b,4,5,7,10,10a,10b,11,12,12a-tetradecahydrocyclopenta[5,6]naphtho[1,2-f]indazol-1-yl cyclopropane Carboxylate]	21
C[C@]12Cc3cnn(-c4ccc(F)nc4)c3C=C1CC[C@@H]1[C@@H]2[C@@H](O)C[C@@]2(C)[C@H]1CC[C@]2(OC(=O)C1CC1)C(=O)SCC#N [Example 152, (1R,3aS,3bS,10aR,10bS,11S,12aS)-1-{[(Cyanomethyl)sulfanyl]carbonyl}-7-(6-fluoropyridin-3-yl)-11-hydroxy-10a,12a-dimethyl-1,2,3,3a,3b,4,5,7,10,10a,10b,11,12,12a-tetradecahydrocyclopenta[5,6]naphtho[1,2-f]indazol-1-yl cyclopropanecarboxylate]	7
CSC(=O)[C@@]1(OC(=O)C2CC2)CC[C@H]2[C@@H]3CCC4=Cc5c(cnn5-c5ccc(F)nc5)C[C@]4(C)[C@H]3[C@@H](O)C[C@@]21C [Example 153, (1R,3aS,3bS,10aR,10bS,11S,12aS)-7-(6-Fluoropyridin-3-yl)-11-hydroxy-10a,12a-dimethyl-1-[(methylsulfanyl)carbonyl]-1,2,3,3a,3b,4,5,7,10,10a,10b,11,12,12a-tetradecahydrocyclopenta[5,6]naphtho[1,2-f]indazol-1-yl cyclopropanecarboxylate]	2.4
COCSC(=O)[C@@]1(OC(=O)C2CC2)CC[C@H]2[C@@H]3CCC4=Cc5c(cnn5-c5ccc(F)nc5)C[C@]4(C)[C@H]3[C@@H](O)C[C@@]21C [Example 154, (1R,3aS,3bS,10aR,10bS,11S,12aS)-7-(6-Fluoropyridin-3-yl)-11-hydroxy-1-{[(methoxymethyl)sulfanyl]carbonyl}-10a,12a-dimethyl-1,2,3,3a,3b,4,5,7,10,10a,10b,11,12,12a-tetradecahydrocyclopenta[5,6]naphtho[1,2-f]indazol-1-yl cyclopropanecarboxylate]	5.9
C[C@]12Cc3cnn(-c4ccc(F)nc4)c3C=C1CC[C@@H]1[C@@H]2[C@@H](O)C[C@@]2(C)[C@H]1CC[C@]2(OC(=O)C1CC1)C(=O)SCCO [Example 155, (1R,3aS,3bS,10aR,10bS,11S,12aS)-7-(6-Fluoropyridin-3-yl)-11-hydroxy-1-{[(2-hydroxyethyl)sulfanyl]carbonyl}-10a,12a-dimethyl-1,2,3,3a,3b,4,5,7,10,10a,10b,11,12,12a-tetradecahydrocyclopenta[5,6]naphtho[1,2-f]indazol-1-yl cyclopropanecarboxylate]	1.9
COCC(=O)O[C@]1(C(=O)SCC#N)CC[C@H]2[C@@H]3CCC4=Cc5c(cnn5-c5ccc(F)nc5)C[C@]4(C)[C@H]3[C@@H](O)C[C@@]21C [Example 156, (1R,3aS,3bS,10aR,10bS,11S,12aS)-1-{[(Cyanomethyl)sulfanyl]carbonyl}-7-(6-fluoropyridin-3-yl)-11-hydroxy-10a,12a-dimethyl-1,2,3,3a,3b,4,5,7,10,10a,10b,11,12,12a-tetradecahydrocyclopenta[5,6]naphtho[1,2-f]indazol-1-yl methoxyacetate]	1.3
COCC(=O)O[C@]1(C(=O)SC)CC[C@H]2[C@@H]3CCC4=Cc5c(cnn5-c5ccc(F)nc5)C[C@]4(C)[C@H]3[C@@H](O)C[C@@]21C [Example 157, (1R,3aS,3bS,10aR,10bS,11S,12aS)-7-(6-Fluoropyridin-3-yl)-11-hydroxy-10a,12a-dimethyl-1-[(methylsulfanyl)carbonyl]-1,2,3,3a,3b,4,5,7,10,10a,10b,11,12,12a-tetradecahydrocyclopenta[5,6]naphtho[1,2-f]indazol-1-yl Methoxyacetate]	1.1
COCSC(=O)[C@@]1(OC(=O)COC)CC[C@H]2[C@@H]3CCC4=Cc5c(cnn5-c5ccc(F)nc5)C[C@]4(C)[C@H]3[C@@H](O)C[C@@]21C [Example 158, (1R,3aS,3bS,10aR,10bS,11S,12aS)-7-(6-Fluoropyridin-3-yl)-11-hydroxy-1-{[(methoxymethyl)sulfanyl]carbonyl}-10a,12a-dimethyl-1,2,3,3a,3b,4,5,7,10,10a,10b,11,12,12a-tetradecahydrocyclopenta[5,6]naphtho[1,2-f]indazol-1-yl methoxyacetate]	2.4
COCC(=O)O[C@]1(C(=O)SCCO)CC[C@H]2[C@@H]3CCC4=Cc5c(cnn5-c5ccc(F)nc5)C[C@]4(C)[C@H]3[C@@H](O)C[C@@]21C [Example 159, (1R,3aS,3bS,10aR,10bS,11S,12aS)-7-(6-Fluoropyridin-3-yl)-11-hydroxy-1-{[(2-hydroxyethyl)sulfanyl]carbonyl}-10a,12a-dimethyl-1,2,3,3a,3b,4,5,7,10,10b,11,12,12a-tetradecahydrocyclopenta[5,6]naphtho[1,2-f]indazol-1-yl methoxyacetate]	3.6
C[C@]12Cc3cnn(-c4ccc(F)nc4)c3C=C1CC[C@@H]1[C@@H]2[C@@H](O)C[C@@]2(C)[C@H]1CC[C@]2(OC(=O)c1cocn1)C(=O)SCC#N [Example 160, (1R,3aS,3bS,10aR,10bS,11S,12aS)-1-{[(Cyanomethyl)sulfanyl]carbonyl}-7-(6-fluoropyridin-3-yl)-11-hydroxy-10a,12a-dimethyl-1,2,3,3a,3b,4,5,7,10,10a,10b,11,12,12a-tetradecahydrocyclopenta[5,6]naphtho[1,2-f]indazol-1-yl 1,3-oxazole-4-carboxylate]	2.1
CSC(=O)[C@@]1(OC(=O)c2cocn2)CC[C@H]2[C@@H]3CCC4=Cc5c(cnn5-c5ccc(F)nc5)C[C@]4(C)[C@H]3[C@@H](O)C[C@@]21C [Example 161, (1R,3aS,3bS,10aR,10bS,11S,12aS)-7-(6-Fluoropyridin-3-yl)-11-hydroxy-10a,12a-dimethyl-1-[(methylsulfanyl)carbonyl]-1,2,3,3a,3b,4,5,7,10,10a,10b,11,12,12a-tetradecahydrocyclopenta[5,6]naphtho[1,2-f]indazol-1-yl 1,3-oxazole-4-carboxylate]	1.3
C[C@]12Cc3cnn(-c4ccc(F)nc4)c3C=C1CC[C@@H]1[C@@H]2[C@@H](O)C[C@@]2(C)[C@H]1CC[C@]2(OC(=O)c1cocn1)C(=O)SCCO [Example 162, (1R,3aS,3bS,10aR,10bS,11S,12aS)-7-(6-Fluoropyridin-3-yl)-11-hydroxy-1-{[(2-hydroxyethyl)sulfanyl]carbonyl}-10a,12a-dimethyl-1,2,3,3a,3b,4,5,7,10,10a,10b,11,12,12a-tetradecahydrocyclopenta[5,6]naphtho[1,2-f]indazol-1-yl 1,3-oxazole-4-carboxylate]	1.8

Source: patent US8163724B2, “Glucocorticosteroids, processes for their preparation, pharmaceutical compositions containing them and their use in therapy” (AstraZeneca AB, priority 2007, dated 2012)
